This is an account of results in patent US6518243B1, “Desleucyl glycopeptide antibiotics and methods of making same” (Trustees of Princeton University, priority 1999, dated 2003).

Holding throughout (experiment): Zone of inhibition screen, 96 well agar array format
Type in all cases: cell-based
What all share (set-up): scale not given here

Experiment [1] relates to S. aureus (ATCC 29213). An outline of the steps:
(§1)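 Agar-array screen, 96-well; single compounds vs. strain panel (panel also incl. E. faecium ATCC 49624); antibacterial activity scored.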

Experiment [2] relates to S. epidermidis (ATCC 12228). An outline of the steps:
as §1

The test system of experiment [3] is E. faecalis (CL 4877). The note with it: zone of inhibition relative to 1 mg/ml p-chlorobiphenylvancomycin. Summed up: as §1
Setting [4] is: zone of inhibition relative to 1 mg/ml stock solution of p-chlorobiphenylvancomycin.
The mark [5] stands for this setting: zone of inhibition relative to 1 mg/ml p-chlorobiphenylvancomycin.

Regarding `CC(=O)OC(CC(=O)NC1C(=O)NC(CC(N)=O)C(=O)NC2C(=O)NC3C(=O)NC(C(=O)NC(C(=O)O)c4cc(O)cc(O)c4-c4cc3ccc4O)C(O)c3ccc(c(Cl)c3)Oc3cc2cc(c3OC2OC(CO)C(O)C(O)C2OC2CC(C)(NCc3ccc(-c4ccc(Cl)cc4)cc3)C(O)C(C)O2)Oc2ccc(cc2Cl)C1O)C[N+](C)(C)C` (mixture of isomers) [Compound 118], the “zone score, S. aureus ATCC 29213” value in experiment [1] (setting [4]) is listed as 2. For the same compound, the “zone score, S. epidermidis ATCC 12228” value in experiment [2] (setting [4]) is listed as 2.
Regarding `CSCCC(NC(C)=O)C(=O)NC1C(=O)NC(CC(N)=O)C(=O)NC2C(=O)NC3C(=O)NC(C(=O)NC(C(=O)O)c4cc(O)cc(O)c4-c4cc3ccc4O)C(O)c3ccc(c(Cl)c3)Oc3cc2cc(c3OC2OC(CO)C(O)C(O)C2OC2CC(C)(NCc3ccc(-c4ccc(Cl)cc4)cc3)C(O)C(C)O2)Oc2ccc(cc2Cl)C1O` (mixture of isomers) [Compound 175], the “zone score, S. aureus ATCC 29213” value in experiment [1] (setting [4]) was found to be 2. Besides, the “zone score, S. epidermidis ATCC 12228” value in experiment [2] (setting [4]) is given as 2.
On to `CCCCCCCCCCCCCC(=O)NCC(=O)N[C@H]1C(=O)N[C@@H](CC(N)=O)C(=O)N[C@H]2C(=O)N[C@H]3C(=O)N[C@H](C(=O)N[C@@H](C(=O)O)c4cc(O)cc(O)c4-c4cc3ccc4O)[C@H](O)c3ccc(c(Cl)c3)Oc3cc2cc(c3O[C@@H]2O[C@H](CO)[C@@H](O)[C@H](O)[C@H]2O[C@@H]2C[C@@](C)(NCc3ccc(-c4ccc(Cl)cc4)cc3)[C@@H](O)[C@@H](C)O2)Oc2ccc(cc2Cl)[C@H]1O` [Compound 22], for which the “zone score, S. aureus ATCC 29213” value in experiment [1] (setting [4]) is reported as 2. The “zone score, S. epidermidis ATCC 12228” value in experiment [2] (setting [4]) is reported as 2.
Consider `CSCCC(N)C(O)CC(=O)NC1C(=O)NC(CC(N)=O)C(=O)NC2C(=O)NC3C(=O)NC(C(=O)NC(C(=O)O)c4cc(O)cc(O)c4-c4cc3ccc4O)C(O)c3ccc(c(Cl)c3)Oc3cc2cc(c3OC2OC(CO)C(O)C(O)C2OC2CC(C)(NCc3ccc(-c4ccc(Cl)cc4)cc3)C(O)C(C)O2)Oc2ccc(cc2Cl)C1O` (stereo not drawn) [Compound 31], for which, in experiment [1] (setting [4]), the “zone score, S. aureus ATCC 29213” value is 2. Moreover, the “zone score, S. epidermidis ATCC 12228” value in experiment [2] (setting [4]) came to 2.
Turning to `CC1OC(OC2C(Oc3c4cc5cc3Oc3ccc(cc3Cl)C(O)C3NC(=O)C(NC(=O)C5NC(=O)C(CC(N)=O)NC(=O)C(NC(=O)CC(N)C(N)=O)C(O)c5ccc(c(Cl)c5)O4)c4ccc(O)c(c4)-c4c(O)cc(O)cc4C(C(=O)O)NC3=O)OC(CO)C(O)C2O)CC(C)(NCc2ccc(-c3ccc(Cl)cc3)cc2)C1O` (stereo not drawn) [Compound 74], in experiment [1] (setting [4]), the “zone score, S. aureus ATCC 29213” value came out at 2. In addition, the “zone score, S. epidermidis ATCC 12228” value in experiment [2] (setting [4]) turned out to be 2.
Regarding `CC1OC(OC2C(Oc3c4cc5cc3Oc3ccc(cc3Cl)C(O)C3NC(=O)C(NC(=O)C5NC(=O)C(CC(N)=O)NC(=O)C(NC(=O)C(N)CCCCNC(N)=O)C(O)c5ccc(c(Cl)c5)O4)c4ccc(O)c(c4)-c4c(O)cc(O)cc4C(C(=O)O)NC3=O)OC(CO)C(O)C2O)CC(C)(NCc2ccc(-c3ccc(Cl)cc3)cc2)C1O` (stereo not drawn) [Compound 78], the “zone score, S. aureus ATCC 29213” value in experiment [1] (setting [4]) is on record as 2. The “zone score, S. epidermidis ATCC 12228” value in experiment [2] (setting [4]) stood at 2.
On to `C=CCOC(=O)NCCC(N)C(=O)NC1C(=O)NC(CC(N)=O)C(=O)NC2C(=O)NC3C(=O)NC(C(=O)NC(C(=O)O)c4cc(O)cc(O)c4-c4cc3ccc4O)C(O)c3ccc(c(Cl)c3)Oc3cc2cc(c3OC2OC(CO)C(O)C(O)C2OC2CC(C)(NCc3ccc(-c4ccc(Cl)cc4)cc3)C(O)C(C)O2)Oc2ccc(cc2Cl)C1O` (stereo not drawn) [Compound 93], for which, in experiment [1] (setting [4]), the “zone score, S. aureus ATCC 29213” value came to 2. The “zone score, S. epidermidis ATCC 12228” value in experiment [2] (setting [4]) was 2.
For `CC(=O)OCC(=O)NC1C(=O)NC(CC(N)=O)C(=O)NC2C(=O)NC3C(=O)NC(C(=O)NC(C(=O)O)c4cc(O)cc(O)c4-c4cc3ccc4O)C(O)c3ccc(c(Cl)c3)Oc3cc2cc(c3OC2OC(CO)C(O)C(O)C2OC2CC(C)(NCc3ccc(-c4ccc(Cl)cc4)cc3)C(O)C(C)O2)Oc2ccc(cc2Cl)C1O` (stereo not drawn) [Compound 117], the “zone score, S. aureus ATCC 29213” value in experiment [1] (setting [4]) came to 2. Moreover, in experiment [2] (setting [4]), the “zone score, S. epidermidis ATCC 12228” value worked out at 2.
On to `CC1OC(OC2C(Oc3c4cc5cc3Oc3ccc(cc3Cl)C(O)C3NC(=O)C(NC(=O)C5NC(=O)C(CC(N)=O)NC(=O)C(NC(=O)c5cc(=O)[nH]c(=O)[nH]5)C(O)c5ccc(c(Cl)c5)O4)c4ccc(O)c(c4)-c4c(O)cc(O)cc4C(C(=O)O)NC3=O)OC(CO)C(O)C2O)CC(C)(NCc2ccc(-c3ccc(Cl)cc3)cc2)C1O` (stereo not drawn) [Compound 198], for which, in experiment [1] (setting [4]), the “zone score, S. aureus ATCC 29213” value is given as 2. Further, in experiment [2] (setting [4]), the “zone score, S. epidermidis ATCC 12228” value is recorded as 2.
Turning to `CC1OC(OC2C(Oc3c4cc5cc3Oc3ccc(cc3Cl)C(O)C3NC(=O)C(NC(=O)C5NC(=O)C(CC(N)=O)NC(=O)C(NC(=O)C5CCC(=O)O5)C(O)c5ccc(c(Cl)c5)O4)c4ccc(O)c(c4)-c4c(O)cc(O)cc4C(C(=O)O)NC3=O)OC(CO)C(O)C2O)CC(C)(NCc2ccc(-c3ccc(Cl)cc3)cc2)C1O` (stereo not drawn) [Compound 227], the “zone score, S. aureus ATCC 29213” value in experiment [1] (setting [5]) is recorded as 2. In addition, the “zone score, S. epidermidis ATCC 12228” value in experiment [2] (setting [5]) was found to be 2.
`CC1OC(OC2C(Oc3c4cc5cc3Oc3ccc(cc3Cl)C(O)C3NC(=O)C(NC(=O)C5NC(=O)C(CC(N)=O)NC(=O)C(NC(=O)c5ccccc5F)C(O)c5ccc(c(Cl)c5)O4)c4ccc(O)c(c4)-c4c(O)cc(O)cc4C(C(=O)O)NC3=O)OC(CO)C(O)C2O)CC(C)(NCc2ccc(-c3ccc(Cl)cc3)cc2)C1O` (stereo not drawn) [Compound 238]: the “zone score, S. aureus ATCC 29213” value in experiment [1] (setting [5]) was found to be 2. Further, in experiment [2] (setting [5]), the “zone score, S. epidermidis ATCC 12228” value was 2.
Take `CC1OC(OC2C(Oc3c4cc5cc3Oc3ccc(cc3Cl)C(O)C3NC(=O)C(NC(=O)C5NC(=O)C(CC(N)=O)NC(=O)C(NC(=O)c5ccco5)C(O)c5ccc(c(Cl)c5)O4)c4ccc(O)c(c4)-c4c(O)cc(O)cc4C(C(=O)O)NC3=O)OC(CO)C(O)C2O)CC(C)(NCc2ccc(-c3ccc(Cl)cc3)cc2)C1O` (stereo not drawn) [Compound 240]: the “zone score, S. aureus ATCC 29213” value in experiment [1] (setting [5]) is recorded as 2. Besides, the “zone score, S. epidermidis ATCC 12228” value in experiment [2] (setting [5]) came to 2.
Consider `CC1OC(OC2C(Oc3c4cc5cc3Oc3ccc(cc3Cl)C(O)C3NC(=O)C(NC(=O)C5NC(=O)C(CC(N)=O)NC(=O)C(NC(=O)C=Cc5ccco5)C(O)c5ccc(c(Cl)c5)O4)c4ccc(O)c(c4)-c4c(O)cc(O)cc4C(C(=O)O)NC3=O)OC(CO)C(O)C2O)CC(C)(NCc2ccc(-c3ccc(Cl)cc3)cc2)C1O` (stereo not drawn) [Compound 244], for which the “zone score, S. aureus ATCC 29213” value in experiment [1] (setting [5]) is 2. Further, in experiment [2] (setting [5]), the “zone score, S. epidermidis ATCC 12228” value was 2.
`CC1OC(OC2C(Oc3c4cc5cc3Oc3ccc(cc3Cl)C(O)C3NC(=O)C(NC(=O)C5NC(=O)C(CC(N)=O)NC(=O)C(NC(=O)c5ccc(O)cc5)C(O)c5ccc(c(Cl)c5)O4)c4ccc(O)c(c4)-c4c(O)cc(O)cc4C(C(=O)O)NC3=O)OC(CO)C(O)C2O)CC(C)(NCc2ccc(-c3ccc(Cl)cc3)cc2)C1O` (stereo not drawn) [Compound 271]: the “zone score, S. aureus ATCC 29213” value in experiment [1] (setting [5]) amounted to 2. Also, the “zone score, S. epidermidis ATCC 12228” value in experiment [2] (setting [5]) amounted to 2.
For `CC1OC(OC2C(Oc3c4cc5cc3Oc3ccc(cc3Cl)C(O)C3NC(=O)C(NC(=O)C5NC(=O)C(CC(N)=O)NC(=O)C(NC(=O)CSCCS(=O)(=O)c5ccc(Cl)cc5)C(O)c5ccc(c(Cl)c5)O4)c4ccc(O)c(c4)-c4c(O)cc(O)cc4C(C(=O)O)NC3=O)OC(CO)C(O)C2O)CC(C)(NCc2ccc(-c3ccc(Cl)cc3)cc2)C1O` (stereo not drawn) [Compound 300], in experiment [3], the “zone score, E. faecalis CL 4877” value came out at 2. The “zone score, S. epidermidis ATCC 12228” value in experiment [2] (setting [5]) is 2.
`CC1OC(OC2C(Oc3c4cc5cc3Oc3ccc(cc3Cl)C(O)C3NC(=O)C(NC(=O)C5NC(=O)C(CC(N)=O)NC(=O)C(NC(=O)CNC(=O)C=Cc5ccco5)C(O)c5ccc(c(Cl)c5)O4)c4ccc(O)c(c4)-c4c(O)cc(O)cc4C(C(=O)O)NC3=O)OC(CO)C(O)C2O)CC(C)(NCc2ccc(-c3ccc(Cl)cc3)cc2)C1O` (stereo not drawn) [Compound 306]: in experiment [3], the “zone score, E. faecalis CL 4877” value was 2. Also, the “zone score, S. epidermidis ATCC 12228” value in experiment [2] (setting [5]) was 2.
In the case of `CC1OC(OC2C(Oc3c4cc5cc3Oc3ccc(cc3Cl)C(O)C3NC(=O)C(NC(=O)C5NC(=O)C(CC(N)=O)NC(=O)C(NC(=O)c5ccc[n+]([O-])c5)C(O)c5ccc(c(Cl)c5)O4)c4ccc(O)c(c4)-c4c(O)cc(O)cc4C(C(=O)O)NC3=O)OC(CO)C(O)C2O)CC(C)(NCc2ccc(-c3ccc(Cl)cc3)cc2)C1O` (stereo not drawn) [Compound 308], the “zone score, E. faecalis CL 4877” value in experiment [3] is listed as 2. For the same compound, the “zone score, S. epidermidis ATCC 12228” value in experiment [2] (setting [5]) is recorded as 2.
Take `CNC(=O)C=CC(=O)NC1C(=O)NC(CC(N)=O)C(=O)NC2C(=O)NC3C(=O)NC(C(=O)NC(C(=O)O)c4cc(O)cc(O)c4-c4cc3ccc4O)C(O)c3ccc(c(Cl)c3)Oc3cc2cc(c3OC2OC(CO)C(O)C(O)C2OC2CC(C)(NCc3ccc(-c4ccc(Cl)cc4)cc3)C(O)C(C)O2)Oc2ccc(cc2Cl)C1O` (stereo not drawn) [Compound 309]: the “zone score, E. faecalis CL 4877” value in experiment [3] is given as 2. The “zone score, S. epidermidis ATCC 12228” value in experiment [2] (setting [5]) was 2.
For `CC1OC(OC2C(Oc3c4cc5cc3Oc3ccc(cc3Cl)C(O)C3NC(=O)C(NC(=O)C5NC(=O)C(CC(N)=O)NC(=O)C(NC(=O)Cc5c(F)c(F)c(F)c(F)c5F)C(O)c5ccc(c(Cl)c5)O4)c4ccc(O)c(c4)-c4c(O)cc(O)cc4C(C(=O)O)NC3=O)OC(CO)C(O)C2O)CC(C)(NCc2ccc(-c3ccc(Cl)cc3)cc2)C1O` (stereo not drawn) [Compound 310], in experiment [3], the “zone score, E. faecalis CL 4877” value amounted to 2. Moreover, the “zone score, S. epidermidis ATCC 12228” value in experiment [2] (setting [5]) is reported as 2.
Regarding `CC1OC(OC2C(Oc3c4cc5cc3Oc3ccc(cc3Cl)C(O)C3NC(=O)C(NC(=O)C5NC(=O)C(CC(N)=O)NC(=O)C(NC(=O)c5cccs5)C(O)c5ccc(c(Cl)c5)O4)c4ccc(O)c(c4)-c4c(O)cc(O)cc4C(C(=O)O)NC3=O)OC(CO)C(O)C2O)CC(C)(NCc2ccc(-c3ccc(Cl)cc3)cc2)C1O` (stereo not drawn) [Compound 319], in experiment [3], the “zone score, E. faecalis CL 4877” value turned out to be 2. For the same compound, the “zone score, S. epidermidis ATCC 12228” value in experiment [2] (setting [5]) came out at 2.
Take `CC1OC(OC2C(Oc3c4cc5cc3Oc3ccc(cc3Cl)C(O)C3NC(=O)C(NC(=O)C5NC(=O)C(CC(N)=O)NC(=O)C(NC(=O)Cc5ccsc5)C(O)c5ccc(c(Cl)c5)O4)c4ccc(O)c(c4)-c4c(O)cc(O)cc4C(C(=O)O)NC3=O)OC(CO)C(O)C2O)CC(C)(NCc2ccc(-c3ccc(Cl)cc3)cc2)C1O` (stereo not drawn) [Compound 320]: in experiment [3], the “zone score, E. faecalis CL 4877” value is 2. Further, in experiment [2] (setting [5]), the “zone score, S. epidermidis ATCC 12228” value is on record as 2.
